The source of these data is patent US7402587B2, “Crystalline forms of a pyridinyl-sulfonamide and their use as endothelin receptor antagonists” (Speedel Pharma AG, priority 2004, dated 2008).

Holding throughout (format): physicochemical
Data set [1] in a line: Light sensitivity of solutions and suspensions. The conditions noted are these: in particular above ambient temperature.
The nature of data set [2]: Hygroscopicity: water adsorption when stored under humid conditions. Particulars: hygroscopic, water released between 50° C. and 200° C. when heated at 10° C./minute. Here is the method:
Polymorph form A is a solid powder with a particle size in the range from 1 to 500 μm, preferably 5 to 300 μm, and more preferably 5 to 200 μm. The polymorph A is hygroscopic and adsorbs water to a content of about 5 percent by weight (when stored under humid conditions), which is continuously released between 50° C. and 200° C., when heated at a rate of 10° C./minute. The polymorph A is especially suitable as an intermediate and starting material to produce stable polymorph forms.

Data set [3] is described as follows: Thermodynamic stability of the crystalline forms (own investigations). Particulars: compared with the other crystalline forms. The source says: Own investigations have shown that there exist two distinct crystalline forms, hereinafter referred to as form A and form B, as well as a number of further solvates, in particular the methanol, ethanol, isopropanol, dichloromethane, acetone, methyl ethyl ketone and tetrahydrofuran solvates.

Take `COc1ccccc1Oc1c(NS(=O)(=O)c2ccc(C)cn2)nc(-c2ccncc2)nc1OC` [SPP301, 5-methyl-pyridine-2-sulfonic acid [6-methoxy-5-(2-methoxy-phenoxy)-2-pyridin-4-yl-pyrimidin-4-yl]-amide]: the sensitivity to light result in data set [1] is “sensitive to light”. For the compound `COc1ccccc1Oc1c(NS(=O)(=O)c2ccc(C)cn2)nc(-c2ccncc2)nc1OC` [form A, 5-methyl-pyridine-2-sulfonic acid [6-methoxy-5-(2-methoxy-phenoxy)-2-pyridin-4-yl-pyrimidin-4-yl]-amide], in data set [2], the “adsorbs water to a content of” value is “about 5 percent by weight”. As for `COc1ccccc1Oc1c(NS(=O)(=O)c2ccc(C)cn2)nc(-c2ccncc2)nc1OC` [form B, 5-methyl-pyridine-2-sulfonic acid [6-methoxy-5-(2-methoxy-phenoxy)-2-pyridin-4-yl-pyrimidin-4-yl]-amide], the “thermodynamic stability of crystalline form” value in data set [3] is reported as “thermodynamically stable”.
